Source: US20240316141A1, “The Use of Thiourea and Thiourea Derivatives As Potentiators of Antibacterial Activity of Peptoids” (The Board of Trustees of the Leland Stanford Junior …, priority 2021, published 2024)

Key:
Pseudomonas aeruginosa = experiment: MIC of peptoid in the presence and absence of thiourea, 24 h incubation, absorbance at 600 nm; type: cell-based; details: presence vs absence of thiourea
Protocol: FIG. 1. The minimum inhibitory concentration (MIC) of peptoid (TM5) in the presence and absence of thiourea was examined. MIC was defined as the lowest concentration of peptoid that will inhibit the bacterial growth (i.e., increasing absorbance at 600 nm) after 24 h incubation.

Klebsiella pneumoniae = experiment: as above; type: cell-based; details: Klebsiella pneumoniae (ciprofloxacin-resistant), presence vs absence of thiourea
Protocol: FIG. 2. The minimum inhibitory concentration (MIC) of peptoid (TM5) in the presence and absence of thiourea was examined. MIC was defined as the lowest concentration of peptoid that will inhibit the bacterial growth (i.e., increasing absorbance at 600 nm) after 24 h incubation.

Staphylococcus aureus = experiment: as above; type: cell-based; details: presence vs absence of thiourea
Protocol: FIG. 3. The minimum inhibitory concentration (MIC) of peptoid (TM5) in the presence and absence of thiourea was examined. MIC was defined as the lowest concentration of peptoid that will inhibit the bacterial growth (i.e., increasing absorbance at 600 nm) after 24 h incubation.

[1] = tested on: PA01 ofloxacin induced persister cells; experiment: Eradication of ofloxacin induced persister cells; type: cell-based, Pseudomonas aeruginosa; details: PA01 persister cells from stationary phase culture treated with ofloxacin 5 μg/ml for 24 h
bacterial growth [2] = experiment: MIC of different peptoids in the presence and absence of thiourea; type: cell-based; details: presence vs absence of thiourea; FIGS. 6A-6E
bacterial growth [3] = experiment: MIC of peptoid in the presence and absence of urea, 24 hour incubation; type: cell-based; details: MIC of TM5 in presence vs absence of urea
Protocol: FIG. 8. The minimum inhibitory concentration (MIC) of peptoid (TM5) in the presence and absence of urea was examined. MIC was defined as the lowest concentration of peptoid that will inhibit the bacterial growth (i.e., increasing absorbance at 600 nm) after a 24 hour incubation.

bacterial growth [4] = experiment: MIC of antimicrobial peptide in the presence and absence of thiourea, 24 hour incubation; type: cell-based; details: presence vs absence of thiourea
Protocol: FIG. 7. The minimum inhibitory concentration (MIC) of an antimicrobial peptide (LL-37) in the presence and absence of thiourea was examined. MIC was defined as the lowest concentration of an antimicrobial peptide that will inhibit the bacterial growth (i.e., increasing absorbance at 600 nm) after a 24 hour incubation.

**Q.** H-Ntridec-NLys-Nspe-Nspe-NLys-NH2 [TM5] was tested. Which “effect of thiourea on minimum inhibitory concentration (MIC) / antimicrobial activity of peptoid” value (Pseudomonas aeruginosa) did it give?
**A.** Its value is “increases antimicrobial activity”.

**Q.** And the “effect of thiourea on minimum inhibitory concentration (MIC) / antimicrobial activity of peptoid” value (Klebsiella pneumoniae)?
**A.** Its value is “increases antimicrobial activity”.

**Q.** What about the “effect of thiourea on minimum inhibitory concentration (MIC) / antimicrobial activity of peptoid” value (Staphylococcus aureus) of the same molecule?
**A.** Its value is “increases antimicrobial activity”.

**Q.** What about the “effect of thiourea on persister eradication capability” value [1] of the same molecule?
**A.** The value was “enhance the persister eradication capability”.

**Q.** What about the “effect of thiourea on antimicrobial activity (MIC) of different peptoids” value (from here on “effect of thiourea … of different peptoids”) (bacterial growth [2]) of the same molecule?
**A.** The value was “increases antimicrobial activity”.

**Q.** How did the “synergy of urea with peptoid TM5 (MIC)” value (bacterial growth [3]) turn out when `NC(N)=O` [urea] was run?
**A.** Its value is “did not synergize”.

**Q.** How did the “effect of thiourea … of different peptoids” value (bacterial growth [2]) turn out when “H-Ntridec-(NLys-Nspe-Nspe(p-Br))2-NLys-NH2 [TM20]” was run?
**A.** Its value is “increases antimicrobial activity”.

**Q.** For “H—(NLys-Nspe-Nspe)3-NLys-Nspe-NLys-NH2 [TM16]”, which “effect of thiourea … of different peptoids” value (bacterial growth [2]) is on record?
**A.** Its value is “increases antimicrobial activity”.

**Q.** How did the “effect of thiourea … of different peptoids” value (bacterial growth [2]) turn out when “H—(NLys-Nspe(p-Br)-Nspe(p-Br))2—NH2 [TM4]” was run?
**A.** The value was “increases antimicrobial activity”.

**Q.** LL-37: antimicrobial peptide (LL-37) was tested. Which “synergy of thiourea with antimicrobial peptide (MIC)” value (bacterial growth [4]) did it give?
**A.** The value was “did not synergize”.
